Test results: PMC8667925, “New 1,2,4-oxadiazole derivatives with positive mGlu4 receptor modulation activity and antipsychotic-like properties” (Journal of Enzyme Inhibition and Medicinal Chemistry, 2021)
“Also recorded” adds a separate entry of the source.

Legend:
Albino Swiss mice = assay: modified stress-induced hyperthermia (SIH) in singly housed mice; type: in vivo
Method: The compounds were dissolved in a small amount of 100% EtOH and then adjusted with 20% cyclodextrin, and the pH was adjusted to 6.0. The investigated compounds were administered intraperitoneally (i.p.) 60 min before the behavioural test. Control drugs i.e. diazepam, clozapine and imipramine (Sigma–Aldrich, St. Louis, USA), were administered i.p. 60 min before the behavioural test. Cyclodextrin (20%) was used as a vehicle. All solutions were prepared immediately prior to the experiments and were administered at a constant volume of 10 ml/kg.
The procedure for modified stress-induced hyperthermia was adapted from Van der Heyden[93] and based on the procedure introduced by Borsini[94]. Each experimental group consisted of eight to ten animals. The animals were housed individually in a 26 × 21 × 14 cm Macolon cage 24 h before testing. For this assay, the body temperature was measured for each mouse at t = 0 min (T1) and t = +15 min (T2). Albino Swiss mice were placed into a new cage immediately following T1, with the difference in temperature (T2−T1) used as the measure of stress-induced hyperthermia. […] A comparison between T1 in vehicle-treated mice and those administered the test compound was used to determine whether the agent affects body temperature alone. Diazepam (5 mg/kg) was used as the positive control. The rectal temperature was measured to the nearest 0.1 °C with a Physitemp Theralert thermometer, TH-5, Clifton NJ, USA, with the temperature sensor for mice, Type T, Copper-Constantan Thermocouple, Braintree Scientific Inc. The lubricated thermistor probe (2 mm diameter) was inserted 20 mm into the rectum. The mouse was held at the base of the tail during this determination, and the thermistor probe was left in place until a constant reading was obtained for 15 s. The effects of the investigated compounds on the SIH response were investigated after administration of the compounds at doses of 5, 10 and 20 mg/kg.

mGlu7 receptor = biological target: T1, mGlu7 receptor (Homo sapiens, UniProt Q14831); assay: cAMP accumulation assay in cells expressing mGlu7 receptor (agonist, PAM, NAM modes); type: cell-based; settings: 10 µM, agonist mode
T1 construct: mGlu4 receptor NM_000841, mGlu7 receptor NM_000844.2, and mGlu8 receptor NM_000845; expressed in transfected cells; host or cells: T-REx 293
Method: (§1) The compounds were tested in the agonist, PAM (in the presence of EC20 concentration of L-Glu) or NAM (with EC80 of L-Glu) modes of forskolin-induced cAMP using T-REx 293 cells expressing the protein of a given receptor.
(§2) Figure 4. The activity of compounds 34, 37, 49, 52, 60, 62 and reference drugs MMPIP (a selective NAM of mGlu7 receptor) and AZ12216052 (a PAM of mGlu8 receptor) tested at a concentration of 10 μM in the cAMP accumulation assay in cells expressing mGlu7 and mGlu8 receptors. The percent activity refers to two extreme FRET signals: 0% corresponds to forskolin treatment alone and 100% to maximal FRET signal for the control cells (without any treatment). A/D – agonistic activity; B/E – PAM activity measured in the presence of L-Glu at the EC20 concentration (0.1 mM for mGlu7 receptor, and 1 μM for mGlu8 receptor); C/F – NAM activity measured in the presence of L-Glu at the EC80 concentration (1 mM for mGlu7 receptor, 10 μM for Glu8 receptor).
(§3) Determination of the intracellular cAMP through a homogeneous time-resolved fluorescence (HTRF) cAMP dynamic 2 kit from Cisbio (Codolet, France) was described previously by Chruścicka et al.[91]. Briefly, cells were grown in DMEM supplemented with 10% foetal bovine serum (FBS) (tetracycline free). Forty-eight hours before the experiments, mGlu receptor expression was induced by the addition of 0.75 µg/mL tetracycline. Twenty hours before the experiment, FBS and L-Glu were removed from the medium. Thereafter, the cells were scraped and centrifuged. A cell pellet was suspended in Hanks-HEPES (130 mM NaCl, 5.4 mM KCl, 1.8 mM CaCl2, 0.8 mM MgSO4, 0.9 mM NaH2PO4, 20 mM HEPES, and 3.25 mM glucose; pH 7.4). Then, the cell suspension was incubated in the presence of 10 µM forskolin (or 3 µM forskolin for mGlu7 receptor), the agonist L-glutamate and a compound for 5 min. Next, 10 µl of the cell suspension was mixed with 5 µl of cAMP-d2 conjugate and 5 µL of anti-cAMP cryptate conjugate. After 1 h of incubation at rt, the fluorescence at 620 nm and 665 nm was read (Tecan Infinite M1000). The results were calculated as the 665 nm/620 nm ratio multiplied by 10^4. Each sample was prepared in triplicate.

mGlu8 receptor = biological target: T2, mGlu8 receptor (Homo sapiens, UniProt O00222); assay: cAMP accumulation assay in cells expressing mGlu8 receptor (agonist, PAM, NAM modes); type: cell-based; settings: 10 µM, agonist mode
T2 construct: mGlu4 receptor NM_000841, mGlu7 receptor NM_000844.2, and mGlu8 receptor NM_000845; expressed in transfected cells; host or cells: T-REx 293
Method: as §1, §2, §3

[1] = test system: Salmonella typhimurium strains TA98 and TA100; type: cell-based; settings: TA98 and TA100, with and without S9, ≤ 30 µM
Method: The primary assessment of the cardiotoxic risk and mutagenic potential of the six selected 1,2,4-oxadiazole derivatives was performed in the hERG channel assay and the mini-AMES test, respectively. The mutagenicity potential was determined in strains TA98 (frameshift mutation) and TA100 (base-pair substitution) of Salmonella typhimurium in the presence and absence of an exogenous metabolic activation system (rat liver S9 fraction) containing mammalian microsomal enzymes.
The Ames microplate fluctuation protocol (MPF) assay was performed with Salmonella typhimurium strains TA98 and TA100, […]. The bacterial strain as well as the exposure and indicator medium were obtained from Xenometrix AG (Allschwil, Switzerland). […] After the addition of indicator medium, each well of the 24-well plate was aliquoted into 48 wells of a 384-well plate.
The occurrence of reversion events to histidine prototrophy was observed as the growth of bacteria in the indicator medium without histidine after 72 h of incubation at 37 °C. Bacterial growth in 384-well plates was visualised by a colour change of medium from violet to yellow due to the addition of pH indicator dye. The absorbance was measured with a microplate reader (EnSpire) at 420 nm. The reference mutagen NQNO (0.5 mM) was used as a positive control in the experiments. The medium control baseline (MCB) was calculated, as derived from the mean number of revertants in the medium control plus one standard deviation.
AMES test was conducted with two Salmonella typhimurium strains TA98 and TA100 in the presence or absence of liver homogenate S9 to simulate the metabolic conversions of tested compounds with liver enzymes. The AMES MPF 98/100 assay from Xenometrix was performed as described by the supplier. Data were analysed with the AMES MPF calculation […]
(also on this page, place not known: TA10 cal culation TA98 - S9 Revertants TA98 + S9 Revertants - S9 Revertants TA100 + S9 Revertants TA98 - S9 Revertants TA98 + S9 Revertants TA100 - S9 Revertants 0 TA100 + S9 Revertants)

[2] = 5 mg/kg i.p., 60 min before test
[3] = 20 mg/kg i.p., 60 min before test
[4] = over the doses 5, 10 and 20 mg/kg i.p.
[5] = 10 mg/kg i.p., 60 min before test

T1 sequence (Q14831 35-915): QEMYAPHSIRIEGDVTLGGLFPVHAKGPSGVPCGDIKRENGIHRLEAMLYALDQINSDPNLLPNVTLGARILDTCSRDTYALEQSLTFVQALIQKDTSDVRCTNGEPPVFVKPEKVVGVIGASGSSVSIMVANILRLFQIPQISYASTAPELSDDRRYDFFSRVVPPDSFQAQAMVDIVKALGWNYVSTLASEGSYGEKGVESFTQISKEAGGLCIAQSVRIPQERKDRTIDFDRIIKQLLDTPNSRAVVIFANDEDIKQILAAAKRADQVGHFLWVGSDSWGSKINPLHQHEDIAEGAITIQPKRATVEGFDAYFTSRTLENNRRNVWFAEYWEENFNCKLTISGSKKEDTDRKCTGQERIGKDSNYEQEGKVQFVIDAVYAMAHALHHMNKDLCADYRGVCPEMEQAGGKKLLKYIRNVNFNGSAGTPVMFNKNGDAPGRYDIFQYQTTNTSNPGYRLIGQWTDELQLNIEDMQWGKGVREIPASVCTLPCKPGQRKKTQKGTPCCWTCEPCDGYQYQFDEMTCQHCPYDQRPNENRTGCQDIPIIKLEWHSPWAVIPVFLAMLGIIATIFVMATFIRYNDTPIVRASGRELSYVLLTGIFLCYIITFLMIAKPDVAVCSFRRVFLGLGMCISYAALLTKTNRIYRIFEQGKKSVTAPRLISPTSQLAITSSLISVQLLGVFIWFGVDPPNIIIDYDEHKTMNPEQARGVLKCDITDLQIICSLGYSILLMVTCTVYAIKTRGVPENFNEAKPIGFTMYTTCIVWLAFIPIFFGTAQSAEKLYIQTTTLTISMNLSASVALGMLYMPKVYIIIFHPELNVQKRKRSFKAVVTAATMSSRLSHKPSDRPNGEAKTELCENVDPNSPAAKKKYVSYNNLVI
T2 sequence (O00222 34-908): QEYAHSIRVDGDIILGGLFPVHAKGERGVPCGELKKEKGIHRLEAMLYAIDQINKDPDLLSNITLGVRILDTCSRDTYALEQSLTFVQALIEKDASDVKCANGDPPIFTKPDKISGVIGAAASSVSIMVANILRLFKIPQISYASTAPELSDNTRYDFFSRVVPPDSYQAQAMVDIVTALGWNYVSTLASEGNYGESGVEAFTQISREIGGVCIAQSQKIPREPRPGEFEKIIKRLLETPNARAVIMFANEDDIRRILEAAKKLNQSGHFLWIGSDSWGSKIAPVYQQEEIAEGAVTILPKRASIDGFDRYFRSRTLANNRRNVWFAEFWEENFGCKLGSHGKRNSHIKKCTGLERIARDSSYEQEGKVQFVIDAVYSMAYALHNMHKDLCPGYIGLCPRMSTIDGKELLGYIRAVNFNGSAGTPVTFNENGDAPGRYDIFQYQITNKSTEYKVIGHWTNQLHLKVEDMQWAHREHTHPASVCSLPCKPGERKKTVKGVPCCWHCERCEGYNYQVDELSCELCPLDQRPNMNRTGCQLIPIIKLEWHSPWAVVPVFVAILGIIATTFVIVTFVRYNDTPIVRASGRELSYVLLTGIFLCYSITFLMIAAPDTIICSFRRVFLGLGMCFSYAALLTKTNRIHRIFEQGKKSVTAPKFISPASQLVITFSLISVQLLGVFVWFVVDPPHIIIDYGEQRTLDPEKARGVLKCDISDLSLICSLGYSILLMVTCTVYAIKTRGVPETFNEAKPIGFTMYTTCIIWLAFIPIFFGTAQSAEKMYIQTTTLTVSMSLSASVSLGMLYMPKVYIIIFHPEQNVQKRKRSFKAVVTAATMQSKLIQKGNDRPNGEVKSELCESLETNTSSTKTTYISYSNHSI

SMILES | effect on SIH response (Albino Swiss mice; [2]) | effect on SIH response (Albino Swiss mice; [3]) | effect on SIH response (Albino Swiss mice; [4]) | agonistic activity at mGlu7 receptor (mGlu7 receptor) | agonistic activity at mGlu8 receptor (mGlu8 receptor) | mutagenic activity (mini-AMES) [1] | effect on SIH response (Albino Swiss mice; [5])
O=C(Nc1ccc(-c2noc(-c3ccccc3Cl)n2)c(C(F)(F)F)c1)c1ccccn1 [Compound 60] | reduced the temperature increase caused by stress | reduced the temperature increase caused by stress | significant anxiolytic- and antipsychotic-like properties | direct agonistic activity | direct agonistic activity | no mutagenic potential | –
O=C(Nc1ccc(-c2noc(-c3ccccc3Cl)n2)c(Cl)c1)c1ccccn1 [Compound 52, N-(3-chloro-4-(5-(2-chlorophenyl)-1,2,4-oxadiazol-3-yl)phenyl)picolinamide] | – | – | significant anxiolytic- and antipsychotic-like properties; also recorded: significantly reduced SIH responses at all three doses; also recorded: at all doses significantly reduced the SIH response | direct agonistic activity | direct agonistic activity | no mutagenic potential | –
COc1cc(NC(=O)c2ccccn2)ccc1-c1noc(-c2ccccc2Cl)n1 [Compound 34] | not effective | effective; also recorded: statistically significant reduction in SIH | significant anxiolytic- and antipsychotic-like properties | direct agonistic activity | direct agonistic activity | no mutagenic potential | effective; also recorded: statistically significant reduction in SIH
COc1cc(NC(=O)c2ccccn2)ccc1-c1noc(-c2ccccc2F)n1 [Compound 37] | – | – | significant anxiolytic- and antipsychotic-like properties | direct agonistic activity | direct agonistic activity | no mutagenic potential | effective; also recorded: weak activity
